Converted amounts (≈) assume the structure as drawn. Like-named read-outs stand apart in the source and are kept apart here.
Legend:
[1] = system: NIH/3T3; experiment: Automated CellTiter-Glo luminescent cell viability (cytotoxicity) assay, 5 d
Description: (§1) The CellTiter-Glo® luminescent cell viability assay (Promega, Cat. No. G7573) was automated in 96-well format on the lab automation platform Fluent® (Tecan, Männedorf, Switzerland). The procedure allowed the testing of six compounds in mESC-D3 and NIH/3T3 cells in parallel. On the first day, PBS was dispensed into the peripheral wells of the assay plates (200 μl/well) using the Multiple Channel Arm (MCA). Mouse ES-D3 and NIH/3T3 cells were plated (50 μl/well, 1 × 10^4 cells/ml)) using the Flexible Channel Arm (FCA) and transported into the Cytomat™ 10 (Thermo Fisher Scientific) for incubation using the Robotic Gripper Arm (RGA). A 7-point dilution series of the test compounds and control solutions were prepared in PBS or DMSO (Carl Roth, Cat. No. HN47.1) under the laminar flow, transferred to a 96-well 0.5-ml Masterblock plate (Greiner bio-one, Cat. No. 786261) and placed on the worktable. On the Fluent the compounds were transferred to a 96-well 2-ml Masterblock plate (Greiner bio-one, Cat. No. 780271) and further diluted in growth media using the FCA. Two hours after cell plating compounds and controls were transferred to the assay plate with the FCA (150 μl/well) and transported back in the Cytomat 10. On day three of the assay, the media was exchanged using the MCA: old media was aspirated and dispensed into a 96-deep-well plate (“waste”), freshly prepared compound, and control solution was dispensed into the assay plate. After two more days of incubation, the cell viability was determined using the CellTiter-Glo assay. The assay plates were transported from the Cytomat 10 to the Carousel (Tecan) to adapt to room temperature. After 25 min the cell supernatant was removed partially (80 μl/well) and CellTiter-Glo reagent was dispensed (50 μl/well). The assay plate was placed on a shaker for 1 min and afterward incubated 25 min in the Carousel before the Luminescence signal was detected on the Infinite M1000 Pro plate reader (Tecan).
(§2) Toxicity data from the MTT and CellTiter-Glo Assay was normalized against the vehicle control (100% viability) and plotted against the logarithmic compound concentration.

[2] = system: mESC-D3; experiment: as above
Description: as §1, §2

[3] = system: hiPSC line ZIPi013-E; experiment: Manual human EST cytotoxicity assay, CellTiter-Glo, 5 d
Description: (§3) The cytotoxicity assessment with a reduced assay time of 5 days combined with either NADH- or ATP-based detection was also carried out with human induced pluripotent stem cells (hiPSCs). […] Furthermore, differences in the cytotoxicity effects between the hiPSCs and HDFfs were more pronounced than in the mouse cells. Similar to the cytotoxicity-based assay the overall variance in the data is reduced when viability data was obtained by an ATP-based read-out.
(§4) 96-well cell culture plates were coated with gelatin (0.1%) before plating mESC-D3. All peripheral wells of the assay plate were filled with 200 μl growth media. In order to assess compound toxicity on mESC-D3 and NIH/3T3 cells, cell suspensions of NIH/3T3, and mESC-D3 were prepared in growth media (1 × 10^4 cells/ml) and were transferred to all remaining wells (50 μl/well). A 7-point dilution series in growth media was prepared for each test compound and was transferred to the assay plate 2 h after cell seeding (150 μl/well). Afterward, the cells were incubated in a humidified atmosphere at 37 °C and 5% CO2. Three and 5 days after seeding the cell supernatant was replaced by freshly prepared compound solution (200 μl/well). Seven days after seeding the assay plate was taken out of the incubator and located at room temperature for 10 min, before cell supernatant was aspirated (80 μl/well) and CellTiter-Glo® reagent was dispensed (50 μl/well). The assay plate was placed on a shaker for 1 min and after another 10 min incubation at room temperature in the dark the luminescence signal was detected on a plate reader.
(§5) Figure S1: Step-wise evolution of the cytotoxicity assay towards the use of human cell lines. Related to Figure 2. Cytotoxicity assays were carried out with two compound sets on hiPSC line ZIPi013-E and HDFf, from which they were derived. […] A) 5 day MTT assay and manual handling. B) As in A), but using CellTiter-Glo® viability assay. All points in the graph represent the mean of 6 individual data points, including the standard error.

[4] = system: HDFf (human dermal fibroblasts of fetal origin); experiment: as above
Description: as §3, §4, §5

[5] = system: NIH/3T3; experiment: Manual MTT cell viability assay, 7 d; assay type: cell-based, mouse
Description: (§6) The MTT cell viability assay was performed as described (Seiler and Spielmann [2011]) with modifications. In brief, 96-well cell culture plates were coated with gelatin (0.1%) before plating mESC-D3. All peripheral wells of the assay plate were filled with 200 μl growth media (“blank”). Afterward, NIH/3T3 and mESC-D3 were plated in growth media (1 × 10^4 cells/ml, 50 μl/well). […] Vehicle (PBS) and positive control (5-fluorouracil) wells were also included on all assay plates. Three and 5 days after seeding the cell supernatant was replaced by freshly prepared compound solution (200 μl/well). Seven days after seeding the cell viability was detected. Therefore, the cell supernatant was aspirated from all wells, MTT solution (5 mg/ml) was added (20 μl/well) and the assay plate was incubated for 2 h at 37 °C and 5% CO2 in a humidified atmosphere. Afterward, all liquid was removed from the wells and MTT desorb solution (0.7% SDS in 2-propanol (Carl Roth, Cat. No. 9866.5), pre-warmed to 37 °C) was dispensed (130 μl/well). The assay plate was placed on a shaker for 15 min. Remaining precipitates were suspended by pipetting up and down with a multichannel pipette before measuring the absorption at 570 nm on a microtiter plate reader using 630 nm as a reference wavelength.
as §2

[6] = system: mESC-D3; experiment: Manual MTT cell viability assay, 7 d; assay type: cell-based, mouse
Description: as §6, §2

[7] = system: NIH/3T3; experiment: Manual CellTiter-Glo luminescent cell viability assay (7 d or 5 d); assay type: cell-based, mouse; details: in brackets the two individual experiments
Description: as §4, with “Seven days after seeding the assay plate was taken out of the incubator and located at room temperature for 10 min, before cell supernatant was aspirated (80 μl/well) and CellTiter-Glo® reagent was dispensed (50 μl/well).” left out
as §2

[8] = Automated CellTiter-Glo luminescent cell viability (cytotoxicity) assay, 5 d; details: mouse
Description: as §1, §2

[9] = Manual MTT cell viability assay, 7 d; assay type: cell-based, mouse; details: mouse, manual, in brackets the two individual experiments
Description: as §6, §2

Row | SMILES | Cytotoxicity assay CTG, 5 d IC50 NIH/3T3 [1] | Cytotoxicity assay CTG, 5 d IC50 mESC-D3 [2] | Cytotoxicity assay CTG, 5 d IC50 ZIPi013-E [3] [µg/mL] | Cytotoxicity assay CTG, 5 d IC50 HDFf [4] [µg/mL] | Cytotoxicity assay MTT, 7 d IC50 NIH/3T3 [5] | Cytotoxicity assay MTT, 7 d IC50 mESC-D3 [6] | Cytotoxicity assay CTG, 5 d IC50 NIH/3T3 ([7]; 5 d) | Cytotoxicity assay CTG, 7 d IC50 NIH/ 3T3 ([7]; 7 d) | IC50 at 5 d ([8]; NIH/3T3 cells) [µg/mL] | IC50 at 5 d ([8]; mESC-D3 cells (mouse embryonic stem cells)) [µg/mL] | IC50 at 7 d ([9]; NIH/3T3 cells, read-out: Cytotoxicity assay MTT, 7 d IC50 NIH/3T3) [µg/mL] | IC50 at 7 d ([9]; mESC-D3 cells, read-out: Cytotoxicity assay MTT, 7 d IC50 mESC-D3) [µg/mL]
1 | NC(=O)NO [Hydroxyurea, hydroxyurea] | 4.01 (3.97; 4.06) μg/ml | 2.28 (1.69; 2.87) μg/ml | 0.8652 | 30.15 | 2.17 (1.81; 2.53) µg/ml | 2.11 (2.08; 2.15) µg/ml | 3.12 (> 10; 3.12) µg/ml | 4.83 (> 10; 4.83) µg/ml |  |  |  | 
2 | O=C1NS(=O)(=O)c2ccccc21 [Saccharin, saccharin] |  |  |  |  |  |  |  |  | > 1000 | 393 (≈ 2.15 mM) | > 1000 | > 1000
